Key:
M2R = target: T1, M2R (Homo sapiens, UniProt P08172); experiment: Equilibrium competition binding with [^3H]64 at CHO-hM2R cell homogenates
T1 sequence (P08172 1-466): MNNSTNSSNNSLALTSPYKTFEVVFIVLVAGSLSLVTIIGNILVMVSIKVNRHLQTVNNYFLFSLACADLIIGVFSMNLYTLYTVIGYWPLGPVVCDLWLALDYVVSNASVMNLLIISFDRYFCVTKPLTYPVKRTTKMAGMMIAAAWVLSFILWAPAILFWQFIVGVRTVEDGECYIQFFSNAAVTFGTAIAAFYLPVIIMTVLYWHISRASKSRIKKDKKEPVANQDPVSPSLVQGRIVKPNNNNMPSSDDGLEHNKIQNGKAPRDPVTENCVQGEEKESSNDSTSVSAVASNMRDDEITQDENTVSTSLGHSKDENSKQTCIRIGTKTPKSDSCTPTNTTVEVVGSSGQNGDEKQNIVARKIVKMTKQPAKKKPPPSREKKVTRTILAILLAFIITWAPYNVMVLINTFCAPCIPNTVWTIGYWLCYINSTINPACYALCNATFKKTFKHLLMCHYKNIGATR

M1R–M5R = settings: read-out: Ki (M1R–M4R); range over M1R–M4R; cited from earlier work

SMILES | displacement of [^3H]64 from the M2R-specific binding sites (M2R) | Ki (M1R–M5R) [nM]
CCCCCCOc1nsnc1C1=CCCN(C)C1 [Compound 1, xanomeline] | completely displaced | –
CC(C)[N+](C)(CCOC(=O)C1c2ccccc2Oc2ccccc21)C(C)C [Compound 4, propantheline] | – | 0.057 to 0.33

— PMC6044897 (ACS Omega, 2017)
